# According to patent publication US20250066377A1, “AMINO CHROMEN-2-ONE MODULATORS OF POLRMT” (Pretzel Therapeutics, Inc., priority 2021, published 2025):
# pIC50: −log10 of the molar value.
# Target: POLRMT (Homo sapiens (Human), UniProt O00411)
# Assay: POLRMT homogeneous TR-FRET mitochondrial transcription assay
# Type: biochemical
# Settings: inhibition of POLRMT; TR-FRET detection of 407 bp RNA transcript; 7.5 nM POLRMT, 15 nM TFB2M, 30 nM TFAM, 60 minutes at 37° C.
# Description: The inhibitory activity of the compounds of the present invention against POLRMT were determined by assays based on Bergbrede, T., et al., “An adaptable high-throughput technology enabling the identification of specific transcription modulators,” SLAC Discov., 22, 378-386 (2017).
# The ability of some compounds of the present invention to inhibit POLRMT were determined in a homogeneous TR-FRET Assay using high-throughput screening in a 384-well plate format. This method is used to monitor the activity of mitochondrial transcription through measurement of its product, a 407 bp long RNA transcript. Detection of the product is facilitated by hybridization of two DNA-oligonucleotide probes to specific and adjacent sequences within the RNA product sequence. Upon annealing of the probes, two fluorophores are coupled directly to an acceptor nucleotide probe (ATTO647, 5′), or introduced via a coupled streptavidin with a biotinylated donor nucleotide probe (Europium cryptate) that is brought into sufficient proximity to serve as a fluorescence-donor-acceptor pair. Thus, a FRET signal at 665 nm is generated upon excitation at 340 nm.
# Proteins used as transcription factors (POLRMT: NP_005026.3, TFAM: NP_003192.1, TFB2M: NP_071761.1) are diluted from their stocks to working concentrations of 1 μM, 20 μM and 4 μM respectively, in a dilution buffer containing 20 mM Tris-HCl (pH 8.0), 200 mM NaCl, 10% (v/v) glycerol, 1 mM Dithiothreitol (DTT), 0.5 mM EDTA.
# DNA template is a pUC18 plasmid with the mitochondrial light strand promotor sequence (1-477) cloned between HindIII and BamHI sites. The DNA template is restriction linearized proximal to the promotor 3′-end (pUC-LSP).
# The reaction mixture (10 uL) containing 7.5 nM POLRMT, 15 nM of TFB2M, 30 nM of TFAM, 0.5 nM of DNA template and 500 μM nucleotide triphosphate mix (NTPs) in a reaction buffer (containing 10 mM Tris-HCl (pH 7.5), 10 mM MgCl2, 40 mM NaCl, 10 mM DTT, 0.005% (w/v) Tween-20, 160 units/ml Rnase inhibitor and 0.1 mg/mL BSA) are dispensed to compounds in microplates, using a Thermo Multidrop® dispenser, and incubated at 37° C. in a VWR INCU-Line incubator for 60 minutes after mixing. No nucleotide triphosphate mix is added to negative control samples. Microplates with compounds to be tested in the assay are prepared from 10 mM compound stocks in 100% DMSO, equal amounts of DMSO without any compound are added to positive control and negative control samples.
# During the incubation, a mix of the detection reagents is prepared in a buffer such that the enzymatic reaction is terminated due to chelating of Mg-ions and increased ionic strength, containing 50 mM Tris-HCl (pH 7.5), 700 mM NaCl, 20 mM EDTA, and 0.01% (w/v) Tween-20. Europium-streptavidin is pre-incubated with a 200-fold molar excess of a random sequence oligonucleotide to block unspecific binding of oligo, for two hours at ambient temperature in the dark. Afterwards, the blocked Europium-streptavidin is kept on ice until use.
# At the end of the enzymatic reaction time, 5 μL detection oligo mix in the detection buffer is added, and assay plates are mixed and kept at ambient temperature for one hour, protected from light. The concentration of the Acceptor nucleotide oligo (e.g., ATTO647N-5′-[…]-3′) and Donor nucleotide oligo (e.g., bio-5′-AACACATCTCT(-bio)GCCAAACCCCA-bio-3′) in each assay well is 1 nM, and 3 nM, respectively.
# After incubation with oligo mix, 5 μL of pre-blocked Europium-streptavidin reagent is dispensed to each assay well, assay plates are again mixed and kept at ambient temperature for one hour, protected from light.
# The generated signal is measured with BMG Pherastar microtiter plate reader with a TRF light unit, using excitation at 340 nm, an integration time of 200 μs, and a delay time of 100 μs, before detection at 620 nm and 665 nm. The ratio of donor- and acceptor-fluorescence is used as a measure of the generated transcript product (i.e. enzymatic activity).
# POLRMT, sequence (O00411 42-1230): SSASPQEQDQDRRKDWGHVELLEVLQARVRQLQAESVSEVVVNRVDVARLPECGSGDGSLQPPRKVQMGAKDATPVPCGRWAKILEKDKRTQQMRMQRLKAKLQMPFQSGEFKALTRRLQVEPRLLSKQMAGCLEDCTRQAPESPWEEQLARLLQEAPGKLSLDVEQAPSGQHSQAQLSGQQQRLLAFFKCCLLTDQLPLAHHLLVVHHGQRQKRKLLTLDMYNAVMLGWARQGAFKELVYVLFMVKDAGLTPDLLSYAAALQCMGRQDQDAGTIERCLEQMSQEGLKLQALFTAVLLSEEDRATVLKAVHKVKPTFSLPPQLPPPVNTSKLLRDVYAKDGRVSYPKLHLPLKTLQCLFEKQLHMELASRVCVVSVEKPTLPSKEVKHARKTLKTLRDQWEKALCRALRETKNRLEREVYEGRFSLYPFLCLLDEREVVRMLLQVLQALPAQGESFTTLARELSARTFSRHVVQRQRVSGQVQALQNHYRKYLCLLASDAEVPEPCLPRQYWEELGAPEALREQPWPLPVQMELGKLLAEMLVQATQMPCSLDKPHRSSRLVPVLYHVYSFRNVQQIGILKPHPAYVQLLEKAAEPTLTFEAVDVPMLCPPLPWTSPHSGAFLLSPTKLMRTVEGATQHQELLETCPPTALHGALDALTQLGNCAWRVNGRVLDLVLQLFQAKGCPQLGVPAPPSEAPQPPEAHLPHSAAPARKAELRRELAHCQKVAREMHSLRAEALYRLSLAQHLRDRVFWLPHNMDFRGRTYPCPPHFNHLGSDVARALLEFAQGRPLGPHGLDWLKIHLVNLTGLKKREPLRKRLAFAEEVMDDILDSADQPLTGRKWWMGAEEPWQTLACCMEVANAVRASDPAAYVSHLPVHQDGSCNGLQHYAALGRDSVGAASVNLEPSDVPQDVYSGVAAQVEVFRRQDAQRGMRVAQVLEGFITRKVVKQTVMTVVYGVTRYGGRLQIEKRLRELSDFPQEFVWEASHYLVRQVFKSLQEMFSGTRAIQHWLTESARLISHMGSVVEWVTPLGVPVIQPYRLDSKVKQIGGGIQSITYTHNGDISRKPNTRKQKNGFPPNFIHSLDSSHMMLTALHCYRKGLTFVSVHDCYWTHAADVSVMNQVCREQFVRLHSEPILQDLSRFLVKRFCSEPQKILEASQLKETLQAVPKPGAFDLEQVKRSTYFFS
row,SMILES,pIC50
1,"Cc1ccccc1-c1cc(=O)oc2nc(N3CCN(C)CC3)ccc12 [Example 09, 7-(4-methylpiperazin-1-yl)-4-(o-tolyl)pyrano[2,3-b]pyridin-2-one]",< 4.00
2,"Cc1ccccc1-c1cc(=O)oc2nc(N3CC4(COC4)C3)ccc12 [Example 10, 7-(2-oxa-6-azaspiro[3.3]heptan-6-yl)-4-(o-tolyl)-2H-pyrano[2,3-b]pyridin-2-one]",4.07
3,"Cc1ccccc1-c1cc(=O)oc2nc(N3CCN(C)C(=O)C3)ccc12 [Example 11, 7-(4-methyl-3-oxopiperazin-1-yl)-4-(o-tolyl)-2H-pyrano[2,3-b]pyridin-2-one]",4.33
4,"Cc1ccccc1-c1cc(=O)oc2nc(N3CCC(F)(F)C3)ccc12 [Example 17, 7-(3,3-difluoropyrrolidin-1-yl)-4-(o-tolyl)-2H-pyrano[2,3-b]pyridin-2-one]",6.22
5,"Cc1ccccc1-c1cc(=O)oc2nc(N3CCC(F)C3)ccc12 (stereo not shown) [Example 18, 7-(3-fluoropyrrolidin-1-yl)-4-(o-tolyl)-2H-pyrano[2,3-b]pyridin-2-one]",6.00
6,"Cc1ccccc1-c1cc(=O)oc2nc(N3CCC3)ccc12 [Example 19, 7-(azetidin-1-yl)-4-(o-tolyl)-2H-pyrano[2,3-b]pyridin-2-one]",6.52
7,"COC1CN(c2ccc3c(-c4ccccc4C)cc(=O)oc3n2)C1 [Example 20, 7-(3-methoxyazetidin-1-yl)-4-(o-tolyl)-2H-pyrano[2,3-b]pyridin-2-one]",5.70
8,"O=c1cc(-c2ccc(F)cc2Cl)c2ccc(N3CCOCC3)nc2o1 [Example 21, 4-(2-chloro-4-fluorophenyl)-7-morpholino-2H-pyrano[2,3-b]pyridin-2-one]",5.52
9,"CC(=O)NC1CCN(c2ccc3c(-c4ccccc4C)cc(=O)oc3n2)C1 (stereo not shown) [Example 22, N-(1-(2-oxo-4-(o-tolyl)-2H-pyrano[2,3-b]pyridin-7-yl)pyrrolidin-3-yl)acetamide]",5.52
10,"CN(CC(=O)O)c1ccc2c(-c3ccc(F)cc3Cl)cc(=O)oc2n1 [Example 44, N-(4-(2-chloro-4-fluorophenyl)-2-oxo-2H-pyrano[2,3-b]pyridin-7-yl)-N-methylglycine]",5.30
11,"CNC(=O)CN(C)c1ccc2c(-c3ccc(F)cc3Cl)cc(=O)oc2n1 [Example 45, 2-((4-(2-chloro-4-fluorophenyl)-2-oxo-2H-pyrano[2,3-b]pyridin-7-yl)(methyl)amino)-N-methylacetamide]",6.00
12,"CNC(=O)CCN(C)c1ccc2c(-c3ccc(F)cc3Cl)cc(=O)oc2n1 [Example 47, 3-((4-(2-chloro-4-fluorophenyl)-2-oxo-2H-pyrano[2,3-b]pyridin-7-yl)(methyl)amino)-N-methylpropanamide]",4.24
13,"CN(CCC(N)=O)c1ccc2c(-c3ccc(F)cc3Cl)cc(=O)oc2n1 [Example 52, 3-((4-(2-chloro-4-fluorophenyl)-2-oxo-2H-pyrano[2,3-b]pyridin-7-yl)(methyl)amino)propanamide]",5.00
14,"COC(=O)[C@H](C)N(C)c1ccc2c(-c3ccc(F)cc3Cl)cc(=O)oc2n1 [Example 53, methyl N-(4-(2-chloro-4-fluorophenyl)-2-oxo-2H-pyrano[2,3-b]pyridin-7-yl)-N-methyl-L-alaninate]",6.00
15,"COC(=O)[C@@H](C)N(C)c1ccc2c(-c3ccc(F)cc3Cl)cc(=O)oc2n1 [Example 54, methyl N-(4-(2-chloro-4-fluorophenyl)-2-oxo-2H-pyrano[2,3-b]pyridin-7-yl)-N-methyl-D-alaninate]",6.70
16,"CN(CCC(=O)O)c1ccc2c(-c3ccc(F)cc3Cl)cc(=O)oc2n1 [Example 55, 3-((4-(2-chloro-4-fluorophenyl)-2-oxo-2H-pyrano[2,3-b]pyridin-7-yl)(methyl)amino)propanoic acid]",4.92
17,"Cc1ccccc1-c1cc(=O)oc2nc(N(C)CC(=O)NCC(=O)O)ccc12 [Example 60, N-methyl-N-(2-oxo-4-(o-tolyl)-2H-pyrano[2,3-b]pyridin-7-yl)glycylglycine]",5.22

# Other lines, results leading:
row,pIC50,SMILES
1,6.70,"COC(=O)CN(C)c1ccc2c(-c3ccccc3C)cc(=O)oc2n1 [Example 35, methyl N-methyl-N-(2-oxo-4-(o-tolyl)-2H-pyrano[2,3-b]pyridin-7-yl)glycinate]"
2,6.00,"Cc1ccccc1-c1cc(=O)oc2nc(N(C)CC(=O)O)ccc12 [Example 36, N-methyl-N-(2-oxo-4-(o-tolyl)-2H-pyrano[2,3-b]pyridin-7-yl)glycine]"
3,6.00,"CNC(=O)CN(C)c1ccc2c(-c3ccccc3C)cc(=O)oc2n1 [Example 39, N-methyl-2-[methyl-[4-(o-tolyl)-2-oxo-pyrano[2,3-b]pyridin-7-yl]amino]acetamide]"
4,6.30,"Cc1ccccc1-c1cc(=O)oc2nc(N(C)CC(N)=O)ccc12 [Example 40, 2-[methyl-[4-(o-tolyl)-2-oxo-pyrano[2,3-b]pyridin-7-yl]amino]acetamide]"
5,5.15,"Cc1ccccc1-c1cc(=O)oc2nc(N(C)CCC(=O)O)ccc12 [Example 41, 3-[methyl-[4-(o-tolyl)-2-oxo-pyrano[2,3-b]pyridin-7-yl]amino]propanoic acid]"
6,5.52,Cc1ccccc1-c1cc(=O)oc2nc(N(C)CCC(N)=O)ccc12 [Example 42]
7,5.15,CNC(=O)CCN(C)c1ccc2c(-c3ccccc3C)cc(=O)oc2n1 [Example 43]
8,5.70,"CN(CC(N)=O)c1ccc2c(-c3ccc(F)cc3Cl)cc(=O)oc2n1 [Example 46, 2-((4-(2-chloro-4-fluorophenyl)-2-oxo-2H-pyrano[2,3-b]pyridin-7-yl)(methyl)amino)acetamide]"
9,6.40,"Cc1cccc(C)c1-c1cc(=O)oc2nc(N3CCC[C@H]3C(=O)O)ccc12 [Example 50, (4-(2,6-dimethylphenyl)-2-oxo-2H-pyrano[2,3-b]pyridin-7-yl)-L-proline]"
10,7.00,"Cc1cccc(C)c1-c1cc(=O)oc2nc(N3CCC[C@@H]3C(=O)O)ccc12 [Example 51, (4-(2,6-dimethylphenyl)-2-oxo-2H-pyrano[2,3-b]pyridin-7-yl)-D-proline]"
11,6.70,"Cc1cccc(C)c1-c1cc(=O)oc2nc(N(C)CC(N)=O)ccc12 [Example 56, 2-((4-(2,6-dimethylphenyl)-2-oxo-2H-pyrano[2,3-b]pyridin-7-yl)(methyl)amino)acetamide]"
